Values after ≈ are worked out from the molar mass of the structure shown.
Key:
HEK293 = assay: Cytotoxicity against HEK293 cells by rapid colorimetric assay; format: cell-based; conditions: Homo sapiens
WEHI-164 = assay: Cytotoxicity against mouse WEHI164 cells by rapid colorimetric assay; format: functional, cell-based
J774.A1 = assay: Cytotoxicity against mouse J774A1 cells by rapid colorimetric assay; format: cell-based

`C1=C\Cc2ccc[n+](c2)CCCCCCCC/C=C\Cc2ccc[n+](c2)CCCCCCCC/C=C\Cc2ccc[n+](c2)CCCCCCCC/1` gave an IC50 (HEK293) of over 20 µg/mL, an IC50 (WEHI-164) of over 20 µg/mL and an IC50 (J774.A1) of over 20 µg/mL.

With `C1=C\Cc2ccc[n+](c2)CCCCCCCC/C=C\Cc2ccc[n+](c2)CCCCCCCC/1` the IC50 (HEK293) was over 20 µg/mL, the IC50 (WEHI-164) was over 20 µg/mL and the IC50 (J774.A1) was over 20 µg/mL.

`Sc1ncnc2nc[nH]c12` [MERCAPTOPURINE ANHYDROUS] was tested, and the IC50 (HEK293) was 0.00071 µg/mL (≈ 0.00467 µM), the IC50 (WEHI-164) was 0.0025 µg/mL (≈ 0.0164 µM) and the IC50 (J774.A1) was 0.0051 µg/mL (≈ 0.0335 µM).

Source: ChEMBL document CHEMBL1151990, “3-Alkylpyridinium alkaloids from the Pacific sponge Haliclona sp” (J Nat Prod, 2009)
